According to PubChem BioAssay AID1963979 (Molecular Pharmacology Branch, DTP, NCI, 2024):
Values joined by “and” are separate entries in the source; they are usually repeats but may differ in a detail not shown here. Identical values can stand only once.

Test system: 361931-004-R-J1-PDC multicell spheroid viability
Assay: Anticancer human tumor 361931-004-R-J1-PDC patient-derived colon adenocarcinoma cell line growth inhibition [PI3K]
Conditions: for viability, T/C: stronger effect = lower value
Source text: Combinatorial screen of targeted agents with the PI3K inhibitors inavolisib, alpelisib, duvelisib, and copanlisib in multi-cell type tumor spheroids
A high-throughput screen of multi-cell type tumor spheroids was designed to identify active combinations of targeted small molecules and PI3K pathway inhibitors. Complex spheroids include a stromal component modeled by human endothelial cells (HUVEC) and fibroblasts modeled by human mesenchymal stem cells (MSCs). The concentration ranges selected for each drug and investigational agent were based upon clinically achievable concentrations if the clinical Cmax of the agent was known.
Compounds. The drugs and investigational agents: inavolisib (NSC800729), alpelisib (NSC765974), duvelisib (NSC772469), copanlisib (NSC816437), ipatasertib (NSC767898), afuresertib (NSC778305), talazoparib (NSC767125), sapanisertib (NSC764658), selumetinib (NSC741078), tovorafenib (DAY101, NSC766906), vemurafenib (NSC761431), ravoxertinib (NSC781343), sotorasib (NSC818433), MRTX1133 (NSC 836407), abemaciclib (NSC 768073), palbociclib (NSC758247), venetoclax (NSC 766270), SY5609 (NSC837396), enzalutamide (NSC755605), and darolutamide (NSC825331), were obtained from the National Cancer Institute (NCI) Developmental Therapeutics Program Chemical Repository. The FDA-approved anticancer drug set is available from the NCI Developmental Therapeutics Program. […] The stock solutions were prepared in dimethyl sulfoxide (DMSO, Sigma-Aldrich, St. Louis, MO, cat. D2650) at 800-fold the tested concentration and stored at -70 degrees C prior to their use. All drugs and investigational agents were tested over a range starting from a high concentration at or near the clinical Cmax and decreasing in half-log increments. If the clinical Cmax for an agent had not been determined, the highest concentration tested was 10 microM.
Cell Culture. All cells were maintained in an incubator at 37 degrees C and 5% CO2 with 95% humidity. The PDC lines were cultured according to standard operating procedures established by the NCI PDMR (https://pdmr.cancer.gov/sops/default.htm). All PDCs were thawed and cultured in Matrigel-coated flasks prepared with a working solution of 1X Ham's F-12 nutrient mix, without supplementation (Invitrogen, Waltham, MA, cat. 11765054), 100 U/mL penicillin-streptomycin (Invitrogen, cat. 15140122), and 2.5% Matrigel (Corning Inc., Corning, NY, cat. 354248) for the first three passages. The 354836-022-R-J1-PDC, 475296-252-R-J1-PDC, and 997726-040-R-J2-PDC lines were cultured in 6A media, which includes advanced DMEM/F-12 (Thermo Fisher Scientific, cat. 12634028), 10 mM HEPES (Thermo Fisher Scientific, cat. 15630080), 1X GlutaMAX supplement (Thermo Fisher Scientific, cat. 35050061), 0.1 mg/mL primocin (InvivoGen, San Diego, CA, cat. ant-pm-2), 10% defined fetal bovine serum, heat inactivated (HyClone Laboratories Inc., Logan, UT, cat. SH30070.03HI), 50% L-WRN conditioned media (ATCC, cat. CRL-3276), 1.25 mM N-Acetyl-L-cysteine (Sigma-Aldrich, cat. A9165), 10 mM nicotinamide (Sigma-Aldrich, cat. N0636), 1X B-27 supplement (Thermo Fisher Scientific, cat. 17504044), 1X N-2 supplement (Thermo Fisher Scientific, cat. 17502048), and 10 microM Y-27632 dihydrochloride (Tocris Bioscience, Bristol, United Kingdom, cat. 1254). The 624824-186-R-J2-PDC line was cultured in 6C/Colon 1B media, which includes all 6A media components plus 50 ng/mL human EGF recombinant protein (Thermo Fisher Scientific, cat. PHG0311). […]

[1] = compound alone, run of 05/08/2023
[2] = compound alone, run of 05/09/2023
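Also: spheroids exposed to agents for seven days before readout.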

SMILES | viability, T/C (compound 0.0316 µM) | viability, T/C (compound 0.1 µM) | viability, T/C (compound 0.316 µM) | viability, T/C (compound 1 µM) | viability, T/C (compound 3.16 µM) | IC50 (curve of compound) | viability, T/C (compound 10 µM) | viability, T/C (compound 0.00316 µM) | viability, T/C (compound 0.01 µM) | also measured
C#Cc1c(F)ccc2cc(O)cc(-c3ncc4c(N5CC6CCC(C5)N6)nc(OCC56CCCN5CC(F)C6)nc4c3F)c12 (stereo unspecified) | 104% [middle of 4 runs] | 106% [middle of 4 runs] | 100% [middle of 4 runs] | 104% [middle of 4 runs] | 96.7% [middle of 4 runs] | > 10 µM |  |  |  | 
C=CC(=O)N1CCN(c2nc(=O)n(-c3c(C)ccnc3C(C)C)c3nc(-c4c(O)cccc4F)c(F)cc23)C(C)C1 (stereo unspecified) | 99.5% [middle of 4 runs] | 95.4% [middle of 4 runs] | 105% [middle of 4 runs] | 103% [middle of 4 runs] | 100% [middle of 4 runs] | > 10 µM | 99.2% [middle of 4 runs] |  |  | 
CC(=O)c1c(C)c2cnc(Nc3ccc(N4CCNCC4)cn3)nc2n(C2CCCC2)c1=O | 108% (2×) and 92.8% and 104% | 86.5% [middle of 4 runs] |  |  |  | > 0.1 µM |  | 100% [middle of 4 runs] | 103% [middle of 4 runs] | viability, T/C (compound 0.000316 µM): 103% [middle of 4 runs]; viability, T/C (compound 0.001 µM): 105% [middle of 4 runs]
CC(C)NCC(C(=O)N1CCN(c2ncnc3c2C(C)CC3O)CC1)c1ccc(Cl)cc1 (stereo unspecified) | 97.8% [middle of 4 runs] | 99.3% [middle of 4 runs] | 94.3% [middle of 4 runs] |  | 48.7% [middle of 4 runs] |  | 31.1% [middle of 4 runs] |  |  | 
CC(C)n1nc(-c2ccc3oc(N)nc3c2)c2c(N)ncnc21 | 99.3% [middle of 4 runs] | 76% [middle of 4 runs] |  |  |  | > 0.1 µM |  | 108% and 100% (2×) and 104% | 108% and 100% (2×) and 101% | viability, T/C (compound 0.000316 µM): 99.8% [middle of 4 runs]; viability, T/C (compound 0.001 µM): 102% [middle of 4 runs]
CC(Cn1ccc(-c2ccc(C#N)c(Cl)c2)n1)NC(=O)c1cc(C(C)O)[nH]n1 (stereo unspecified) | 104% [middle of 4 runs] | 97.2% [middle of 4 runs] | 105% [middle of 4 runs] | 104% [middle of 4 runs] | 102% [middle of 4 runs] | > 10 µM | 106% [middle of 4 runs] |  |  | 
CC(Nc1ccc2c(c1)OCCn1cc(N3C(=O)OCC3C(F)F)nc1-2)C(N)=O (stereo unspecified) | 98.1% [middle of 8 runs] | 94.3% [middle of 8 runs] | 92.9% [middle of 8 runs] | 88.1% [middle of 8 runs] |  |  |  | 98.9% [middle of 8 runs] | 97.8% [middle of 8 runs] | IC50 [1]: > 1 µM
CC(Nc1ncnc2nc[nH]c12)c1cc2cccc(Cl)c2c(=O)n1-c1ccccc1 (stereo unspecified) | 106% [middle of 8 runs] | 102% [middle of 8 runs] | 105% [middle of 8 runs] | 104% [middle of 8 runs] | 103% [middle of 8 runs] |  | 102% [middle of 8 runs] |  |  | IC50 [2]: > 10 µM
CC1(C)CCC(CN2CCN(c3ccc(C(=O)NS(=O)(=O)c4ccc(NCC5CCOCC5)c([N+](=O)[O-])c4)c(Oc4cnc5[nH]ccc5c4)c3)CC2)=C(c2ccc(Cl)cc2)C1 | 100% [middle of 4 runs] | 101% [middle of 4 runs] | 101% [middle of 4 runs] | 102% [middle of 4 runs] |  | 4.94 µM and 4.18 µM and 5.61 µM | 3.75% [middle of 4 runs] |  |  | 
CCCS(=O)(=O)Nc1ccc(F)c(C(=O)c2c[nH]c3ncc(-c4ccc(Cl)cc4)cc23)c1F | 103% (2×) and 94% and 108% | 103% and 101% (2×) and 98.4% | 97.1% [middle of 4 runs] | 92.3% [middle of 4 runs] | 82% [middle of 4 runs] | 5.1 µM [middle of 4 runs] | 8.31% [middle of 4 runs] |  |  | 
CCN1CCN(Cc2ccc(Nc3ncc(F)c(-c4cc(F)c5nc(C)n(C(C)C)c5c4)n3)nc2)CC1 |  | 101% [middle of 4 runs] |  |  |  | > 1 µM |  | 104% (2×) and 94% and 103% | 105% [middle of 4 runs] | 
CNC(=O)c1ccc(N2C(=S)N(c3ccc(C#N)c(C(F)(F)F)c3)C(=O)C2(C)C)cc1F | 101% [middle of 4 runs] | 101% [middle of 4 runs] | 104% [middle of 4 runs] | 110% and 103% (2×) and 102% | 98.6% [middle of 4 runs] | > 10 µM | 92.4% [middle of 4 runs] |  |  | 
COc1c(OCCCN2CCOCC2)ccc2c3n(c(=NC(=O)c4cnc(N)nc4)nc12)CCN3 | 95.4% [middle of 8 runs] | 80.6% [middle of 8 runs] | 55.9% [middle of 8 runs] | 22.8% [middle of 8 runs] |  |  |  | 102% [middle of 8 runs] | 98.4% [middle of 8 runs] | IC50 [2]: 393 nM [middle of 8 runs]
C[C@@H](NC(=O)c1ncnc(N)c1Cl)c1ncc(C(=O)Nc2cc(C(F)(F)F)c(Cl)cn2)s1 | 106% [middle of 4 runs] | 103% and 104% (2×) and 115% | 107% [middle of 4 runs] | 99.6% [middle of 4 runs] | 99.3% [middle of 4 runs] | > 10 µM | 100% [middle of 4 runs] |  |  | 
Cc1nc(NC(=O)N2CCCC2C(N)=O)sc1-c1ccnc(C(C)(C)C(F)(F)F)c1 (stereo unspecified) | 101% [middle of 8 runs] |  | 97.9% [middle of 8 runs] | 91.2% [middle of 8 runs] | 87.2% [middle of 8 runs] |  | 73.8% [middle of 8 runs] |  |  | IC50 [1]: > 10 µM
Cn1cnc2c(F)c(Nc3ccc(Br)cc3Cl)c(C(=O)NOCCO)cc21 |  |  |  |  |  | 2.44 µM and > 3 µM and 2.72 µM |  |  |  | viability, T/C (compound 0.00949 µM): 97.8% [middle of 4 runs]; viability, T/C (compound 0.03 µM): 92.1% [middle of 4 runs]; viability, T/C (compound 0.0949 µM): 90% [middle of 4 runs]; viability, T/C (compound 0.3 µM): 86.4% [middle of 4 runs]; viability, T/C (compound 0.949 µM): 84% [middle of 4 runs]; viability, T/C (compound 3 µM): 62.8% [middle of 4 runs]
Cn1ncc(Cl)c1-c1cc(C(=O)NC(CN)Cc2cccc(F)c2)sc1Cl (stereo unspecified) | 94.2% [middle of 4 runs] | 97.2% [middle of 4 runs] |  |  | 46.3% [middle of 4 runs] |  | 29.7% [middle of 4 runs] |  |  | 
Cn1nccc1Nc1nccc(-c2ccn(C(CO)c3ccc(Cl)c(F)c3)c(=O)c2)n1 (stereo unspecified) | 106% [middle of 4 runs] | 92.5% [middle of 4 runs] | 97% [middle of 4 runs] | 95.2% [middle of 4 runs] | 78.3% [middle of 4 runs] | > 10 µM and 9.47 µM | 61.8% [middle of 4 runs] |  |  | 
Cn1ncnc1[C@H]1c2n[nH]c(=O)c3cc(F)cc(c23)N[C@@H]1c1ccc(F)cc1 | 102% [middle of 4 runs] |  |  |  |  | > 0.1 µM |  | 96.5% [middle of 4 runs] | 101% [middle of 4 runs] | viability, T/C (compound 0.000316 µM): 103% [middle of 4 runs]; viability, T/C (compound 0.001 µM): 99.7% [middle of 4 runs]
